From US20050181947A1, “Fungicidal seed treatment agent for oilseed rape” (BASF Agro BV., Amhem (NL)-Wadenswil-Branch, priority 2002, published 2005)

Columns and labels:
[1] = tested on: Brassica napus (winter rape, species Express); assay: Field trial of treated oilseed rape seed: yield; type: in vivo; details: seed treatment; independent of the site
Description: (§1) The seed treated in accordance with the production examples described above was tested in field trials at a sowing rate of 4 kg per hectare. The individual test parameters were evaluated using the methods usually used in practice in each case, such as determining the weight for plant biomass and grading in the event of fungal infestation.
The yield after a period of vegetation is higher after treatment of the oilseed rape seed with fluquinconazole compared with the untreated control. This effect is independent of the site.

[2] = tested on: Fungal infestation of the leaves; assay: Field trial of treated oilseed rape seed: fungal infestation of the leaves (grading); type: in vivo, Brassica napus
Description: as §1
(§2) The increase in the plant biomass and the suppression of fungal infestation in both the exemplary embodiments of treatment of oilseed rape seed with fluquinconazole is higher compared with the untreated control and compared with the active substance dimethomorph which was co-tested as a reference and is used as the standard treatment agent in oilseed rape for protection against downy mildew.

[3] = tested on: Brassica napus (winter rape, species Bristol); assay: Field trial of treated oilseed rape seed: plant biomass (determining the weight); type: in vivo; details: for Plant biomass (% - relative to untreated): standard treatment agent, rate not given, winter rape Bristol, untreated = 100
Description: as §1, §2

downy mildew = assay: Field trial of treated oilseed rape seed: foliar infestation with downy mildew (grading); type: in vivo, Brassica napus; details: 24 days after sowing; standard treatment agent, rate not given; winter rape Bristol; untreated = 15
Description: as §1, §2

[4] = seed treatment, both exemplary embodiments

Row | Structure (SMILES) | Yield after a period of vegetation compared with the untreated control [1] | Suppression of fungal infestation compared with the untreated control and with dimethomorph [2, 4] | Increase in the plant biomass compared with the untreated control and with dimethomorph [3, 4] | Foliar infestation with downy mildew (% total infestation) (downy mildew) | Fungal infestation of the leaves (% total infestation) ([2]; 41 days after sowing, standard treatment agent, rate not given, winter rape Bristol, untreated = 30) | Plant biomass (% - relative to untreated) ([3]; 24 days after sowing) | Plant biomass (% - relative to untreated) ([3]; 41 days after sowing)
1 | O=c1c2cc(F)ccc2nc(-n2cncn2)n1-c1ccc(Cl)cc1Cl [fluquinconazole, 3-(2,4-dichlorophenyl)-6-fluoro-2-(1H-1,2,4-triazol-1-yl)-quinazolin-4(3H)-one] | higher | higher | higher |  |  |  | 
2 | COc1ccc(C(=CC(=O)N2CCOCC2)c2ccc(Cl)cc2)cc1OC [Dimethomorph] |  |  |  | 5 % total infestation | 25 % total infestation | 105% | 102%
